Reference: ChEMBL document CHEMBL5291721, “A preclinical secondary pharmacology resource illuminates target-adverse drug reaction associations of marketed drugs” (Nat Commun, 2023)

Key:
[1] = target: T1, Muscarinic acetylcholine receptor M4 (Homo sapiens, UniProt P08173)
T1 sequence (P08173 whole entry): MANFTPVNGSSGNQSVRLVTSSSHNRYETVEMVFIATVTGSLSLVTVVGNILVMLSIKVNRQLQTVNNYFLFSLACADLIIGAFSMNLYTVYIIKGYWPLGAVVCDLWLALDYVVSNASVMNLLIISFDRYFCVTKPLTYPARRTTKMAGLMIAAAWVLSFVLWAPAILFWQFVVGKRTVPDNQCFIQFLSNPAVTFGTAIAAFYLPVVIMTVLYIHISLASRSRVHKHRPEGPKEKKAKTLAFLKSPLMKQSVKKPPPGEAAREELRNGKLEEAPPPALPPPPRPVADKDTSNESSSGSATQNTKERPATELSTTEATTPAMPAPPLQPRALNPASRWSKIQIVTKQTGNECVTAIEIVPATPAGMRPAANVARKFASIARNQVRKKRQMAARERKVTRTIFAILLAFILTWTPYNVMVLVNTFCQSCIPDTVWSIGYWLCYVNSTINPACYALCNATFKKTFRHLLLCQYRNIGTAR

[2] = target: T2, Muscarinic acetylcholine receptor M5 (Homo sapiens, UniProt P08912)
T2 sequence (P08912 whole entry): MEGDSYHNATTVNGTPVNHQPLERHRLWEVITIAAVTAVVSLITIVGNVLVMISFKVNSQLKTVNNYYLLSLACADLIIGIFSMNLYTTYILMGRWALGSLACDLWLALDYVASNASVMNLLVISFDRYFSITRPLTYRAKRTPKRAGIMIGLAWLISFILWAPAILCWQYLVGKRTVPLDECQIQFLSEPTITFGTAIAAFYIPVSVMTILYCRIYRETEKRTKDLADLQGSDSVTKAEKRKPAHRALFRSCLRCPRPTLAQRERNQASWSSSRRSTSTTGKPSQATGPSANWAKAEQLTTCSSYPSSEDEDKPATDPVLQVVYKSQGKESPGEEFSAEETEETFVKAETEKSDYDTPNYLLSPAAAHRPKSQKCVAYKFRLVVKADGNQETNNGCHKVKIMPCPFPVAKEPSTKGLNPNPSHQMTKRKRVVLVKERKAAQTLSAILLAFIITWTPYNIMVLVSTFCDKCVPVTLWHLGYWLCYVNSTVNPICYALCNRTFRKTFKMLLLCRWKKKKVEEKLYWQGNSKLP

[3] = target: T3, Peroxisome proliferator-activated receptor gamma (Homo sapiens, UniProt P37231); type: functional
T3 sequence (P37231 whole entry): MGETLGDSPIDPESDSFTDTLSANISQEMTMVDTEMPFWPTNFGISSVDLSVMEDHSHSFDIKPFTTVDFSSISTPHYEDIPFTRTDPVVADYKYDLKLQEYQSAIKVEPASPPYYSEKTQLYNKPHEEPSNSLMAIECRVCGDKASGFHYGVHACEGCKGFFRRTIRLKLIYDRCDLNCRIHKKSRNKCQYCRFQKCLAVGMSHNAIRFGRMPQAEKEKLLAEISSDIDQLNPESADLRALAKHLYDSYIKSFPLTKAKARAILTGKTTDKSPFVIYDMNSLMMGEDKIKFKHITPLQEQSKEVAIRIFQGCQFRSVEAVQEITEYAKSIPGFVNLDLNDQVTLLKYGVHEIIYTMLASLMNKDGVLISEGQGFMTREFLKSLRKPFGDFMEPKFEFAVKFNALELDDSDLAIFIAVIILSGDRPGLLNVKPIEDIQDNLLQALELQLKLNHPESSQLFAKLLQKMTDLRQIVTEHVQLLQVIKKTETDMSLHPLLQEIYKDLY

[4] = target: 5-hydroxytryptamine receptor 7 (Homo sapiens, UniProt P34969)
Substance-K receptor = target: T4, Substance-K receptor (Homo sapiens, UniProt P21452)
T4 sequence (P21452 whole entry): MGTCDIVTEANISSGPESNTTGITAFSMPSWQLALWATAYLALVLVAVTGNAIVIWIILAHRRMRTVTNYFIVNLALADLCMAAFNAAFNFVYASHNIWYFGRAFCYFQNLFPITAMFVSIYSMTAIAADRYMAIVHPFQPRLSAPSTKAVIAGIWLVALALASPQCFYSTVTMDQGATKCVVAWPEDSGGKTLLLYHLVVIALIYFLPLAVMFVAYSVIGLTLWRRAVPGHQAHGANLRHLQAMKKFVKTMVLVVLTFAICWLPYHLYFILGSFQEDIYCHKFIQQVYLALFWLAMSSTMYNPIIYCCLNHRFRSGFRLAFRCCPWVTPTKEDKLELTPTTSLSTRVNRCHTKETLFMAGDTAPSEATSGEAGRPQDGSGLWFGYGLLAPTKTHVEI

[5] = target: Rod cGMP-specific 3',5'-cyclic phosphodiesterase subunit alpha (Homo sapiens, UniProt P16499); type: functional
Cannabinoid receptor 1 = Cannabinoid receptor 1 (Homo sapiens, UniProt P21554); type: functional
[6] = target: T5, Type-2 angiotensin II receptor (Homo sapiens, UniProt P50052); type: functional
T5 sequence (P50052 whole entry): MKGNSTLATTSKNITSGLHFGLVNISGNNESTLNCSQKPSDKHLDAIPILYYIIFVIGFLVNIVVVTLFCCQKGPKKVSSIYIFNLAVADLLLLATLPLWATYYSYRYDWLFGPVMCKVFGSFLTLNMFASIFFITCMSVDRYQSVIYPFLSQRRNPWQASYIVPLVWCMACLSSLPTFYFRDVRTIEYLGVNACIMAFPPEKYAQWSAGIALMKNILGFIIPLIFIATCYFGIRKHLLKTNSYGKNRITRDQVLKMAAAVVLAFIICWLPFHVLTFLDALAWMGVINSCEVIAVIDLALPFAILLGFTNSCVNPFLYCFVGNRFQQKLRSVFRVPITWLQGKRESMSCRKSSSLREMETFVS

[7] = target: Hydroxycarboxylic acid receptor 2 (Homo sapiens, UniProt Q8TDS4)
[8] = target: Synaptic vesicular amine transporter (Rattus norvegicus, UniProt Q01827); type: functional
Further: assay procedure not described here.

Sequence of 5-hydroxytryptamine receptor 7 (P34969 whole entry): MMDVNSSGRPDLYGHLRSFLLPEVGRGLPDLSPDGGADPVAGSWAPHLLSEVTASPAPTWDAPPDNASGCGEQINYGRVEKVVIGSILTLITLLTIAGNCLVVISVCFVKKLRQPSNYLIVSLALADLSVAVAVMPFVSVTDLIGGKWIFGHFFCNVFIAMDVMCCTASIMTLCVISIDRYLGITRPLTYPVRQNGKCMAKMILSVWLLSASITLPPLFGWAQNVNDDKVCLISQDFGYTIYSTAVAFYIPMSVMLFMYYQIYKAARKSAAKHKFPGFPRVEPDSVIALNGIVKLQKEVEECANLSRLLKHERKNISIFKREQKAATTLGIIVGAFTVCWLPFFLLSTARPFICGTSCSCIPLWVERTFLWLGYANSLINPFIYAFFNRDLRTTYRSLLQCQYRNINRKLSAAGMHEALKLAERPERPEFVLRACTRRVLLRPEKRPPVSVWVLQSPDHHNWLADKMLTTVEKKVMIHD
Sequence of Cannabinoid receptor 1 (P21554 whole entry): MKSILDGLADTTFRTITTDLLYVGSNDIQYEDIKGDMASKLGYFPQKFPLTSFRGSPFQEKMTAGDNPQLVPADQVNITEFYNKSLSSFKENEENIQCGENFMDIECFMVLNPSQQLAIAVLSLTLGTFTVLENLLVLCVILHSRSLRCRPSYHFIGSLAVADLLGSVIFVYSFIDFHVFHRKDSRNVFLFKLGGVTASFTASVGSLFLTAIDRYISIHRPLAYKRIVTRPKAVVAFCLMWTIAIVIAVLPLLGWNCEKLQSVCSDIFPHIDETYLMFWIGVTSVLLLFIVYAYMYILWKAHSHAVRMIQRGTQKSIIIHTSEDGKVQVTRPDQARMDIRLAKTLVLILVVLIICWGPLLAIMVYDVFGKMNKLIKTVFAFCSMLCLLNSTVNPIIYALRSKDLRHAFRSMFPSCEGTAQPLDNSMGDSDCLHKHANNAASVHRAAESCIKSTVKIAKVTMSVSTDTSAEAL
Sequence of Rod cGMP-specific 3',5'-cyclic phosphodiesterase subunit alpha (P16499 whole entry): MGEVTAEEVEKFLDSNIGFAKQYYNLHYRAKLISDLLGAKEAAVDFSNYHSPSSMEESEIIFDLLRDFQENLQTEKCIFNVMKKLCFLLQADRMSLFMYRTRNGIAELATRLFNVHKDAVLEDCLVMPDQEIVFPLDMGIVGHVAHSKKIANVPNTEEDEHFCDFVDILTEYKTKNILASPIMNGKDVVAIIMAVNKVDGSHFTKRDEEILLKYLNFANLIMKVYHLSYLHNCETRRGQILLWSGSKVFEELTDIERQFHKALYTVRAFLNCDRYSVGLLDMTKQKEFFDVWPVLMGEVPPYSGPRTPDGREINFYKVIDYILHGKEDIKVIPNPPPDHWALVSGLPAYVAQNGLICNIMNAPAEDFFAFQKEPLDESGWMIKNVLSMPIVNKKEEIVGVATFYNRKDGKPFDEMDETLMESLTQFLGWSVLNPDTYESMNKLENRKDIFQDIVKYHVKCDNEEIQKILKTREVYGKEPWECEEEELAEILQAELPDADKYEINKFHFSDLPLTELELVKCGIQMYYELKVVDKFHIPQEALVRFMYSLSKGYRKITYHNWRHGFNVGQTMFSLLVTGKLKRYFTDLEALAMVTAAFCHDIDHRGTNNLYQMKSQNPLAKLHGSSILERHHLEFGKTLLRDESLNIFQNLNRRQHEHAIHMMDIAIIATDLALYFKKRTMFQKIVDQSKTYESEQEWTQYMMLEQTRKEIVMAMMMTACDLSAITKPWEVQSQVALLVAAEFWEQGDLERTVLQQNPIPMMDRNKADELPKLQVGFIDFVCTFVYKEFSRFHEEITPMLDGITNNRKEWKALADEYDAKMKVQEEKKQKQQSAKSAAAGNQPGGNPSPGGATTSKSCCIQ
Sequence of Hydroxycarboxylic acid receptor 2 (Q8TDS4 whole entry): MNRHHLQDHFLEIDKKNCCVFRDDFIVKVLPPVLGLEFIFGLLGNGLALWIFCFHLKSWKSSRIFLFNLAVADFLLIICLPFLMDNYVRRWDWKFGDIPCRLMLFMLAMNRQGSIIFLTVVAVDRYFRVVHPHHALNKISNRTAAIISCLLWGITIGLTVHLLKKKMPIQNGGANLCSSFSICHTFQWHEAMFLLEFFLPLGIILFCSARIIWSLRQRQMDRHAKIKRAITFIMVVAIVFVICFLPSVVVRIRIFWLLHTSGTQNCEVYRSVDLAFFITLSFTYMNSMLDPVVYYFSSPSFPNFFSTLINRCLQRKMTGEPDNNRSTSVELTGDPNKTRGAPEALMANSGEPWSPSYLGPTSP
Sequence of Synaptic vesicular amine transporter (Q01827 whole entry): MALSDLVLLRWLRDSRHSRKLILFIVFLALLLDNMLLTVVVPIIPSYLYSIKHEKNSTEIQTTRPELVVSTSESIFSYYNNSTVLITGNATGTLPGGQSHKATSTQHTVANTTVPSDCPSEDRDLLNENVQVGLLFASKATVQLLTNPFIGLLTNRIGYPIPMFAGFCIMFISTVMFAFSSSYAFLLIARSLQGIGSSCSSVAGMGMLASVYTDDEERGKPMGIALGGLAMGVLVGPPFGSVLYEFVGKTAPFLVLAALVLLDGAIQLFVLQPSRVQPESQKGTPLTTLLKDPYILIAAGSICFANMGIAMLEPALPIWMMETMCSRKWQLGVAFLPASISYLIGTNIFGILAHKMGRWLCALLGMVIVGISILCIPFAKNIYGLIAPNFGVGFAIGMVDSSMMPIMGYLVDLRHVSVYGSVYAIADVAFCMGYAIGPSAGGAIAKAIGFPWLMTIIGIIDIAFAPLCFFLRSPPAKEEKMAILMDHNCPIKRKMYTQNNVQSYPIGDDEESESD

| SMILES | AC50 [1] [µM] | AC50 [3] [µM] | AC50 [4] [µM] | AC50 (Cannabinoid receptor 1) [µM] | other results |
| --- | --- | --- | --- | --- | --- |
| C[N+]12CCC(CC1)C(OC(=O)C(O)(c1ccccc1)c1ccccc1)C2 (stereo not drawn) | 0.0047 |  |  |  | AC50 [2]: 0.0068 µM |
| CO/N=C(\C(=O)N[C@@H]1C(=O)N2C(C(=O)O)=CCS[C@H]12)c1csc(N)n1 [CEFTIZOXIME] |  | > 30 |  |  |  |
| CO/N=C(\C(=O)N[C@@H]1C(=O)N2C(C(=O)O)=C(CSc3nc(=O)c(=O)[nH]n3C)CS[C@H]12)c1csc(N)n1 [CEFTRIAXONE] |  | 1.4 |  |  |  |
| CCOC(=O)C(C)(C)Oc1ccc(Cl)cc1 [CLOFIBRATE] |  | > 30 |  |  |  |
| CCCCOc1ccc(C(=O)CCN2CCCCC2)cc1 [DYCLONINE] | 13.4 |  | > 10 | > 10 | AC50 (Substance-K receptor): > 10 µM; AC50 [5]: > 10 µM; AC50 [2]: 15.8 µM |
| CC(C)NC[C@H](O)COc1ccc(CC(N)=O)cc1 [ESATENOLOL] |  |  | > 10 | > 10 |  |
| NNC(=O)c1ccncc1 [ISONIAZID] |  |  | > 10 | > 10 |  |
| O=C1Nc2ccc(Cl)cc2C(c2ccccc2Cl)=NC1O (stereo not drawn) [LORAZEPAM] |  |  |  |  | AC50 [6]: > 100 µM; AC50 [7]: > 10 µM |
| Cc1ccnc2c1NC(=O)c1cccnc1N2C1CC1 [NEVIRAPINE] | > 10 |  | > 10 | > 10 | AC50 (Substance-K receptor): > 10 µM; AC50 [5]: > 10 µM; AC50 [2]: > 10 µM |
| Fc1ccc([C@@H]2CCNC[C@H]2COc2ccc3c(c2)OCO3)cc1 [PAROXETINE] | 3.47 |  | > 10 | > 10 | AC50 (Substance-K receptor): > 10 µM; AC50 [6]: > 100 µM; AC50 [8]: 2500 nM; AC50 [5]: > 10 µM |
| CCC(=O)O[C@](Cc1ccccc1)(c1ccccc1)[C@H](C)CN(C)C [PROPOXYPHENE] |  |  |  |  | AC50 [7]: > 10 µM |
| CCOC(=O)[C@@H](N)Cc1ccc(-c2cc(O[C@H](c3ccc(Cl)cc3-n3ccc(C)n3)C(F)(F)F)nc(N)n2)cc1 [TELOTRISTAT ETHYL] |  | > 30 |  |  |  |
| CC(c1cc2ccccc2s1)N(O)C(N)=O (stereo not drawn) [ZILEUTON] |  |  |  |  | AC50 [8]: > 30000 nM |
